Laboratory results from patent publication US20020082254A1, “Compounds for treating disorders where a decreased level of plasma FFA is desired” (priority 2000, published 2002).
Structures can show the parent of a compound that is named as a salt. Where two headings read alike, the source gives them in different places.

Experiments:
[1] = biological target: T1, Lipoprotein lipase (LPL) (Bos taurus, UniProt P11151); assay: Lipoprotein lipase (LPL) inhibition assay, 3H-triolein/intralipid substrate; format: biochemical; settings: read-out: LPL inhibition (% inh. at 50 μM)
T1 construct: Dr. Gunilla Olivecrona, Umea University (gift)
T1 sequence (P11151 29-478): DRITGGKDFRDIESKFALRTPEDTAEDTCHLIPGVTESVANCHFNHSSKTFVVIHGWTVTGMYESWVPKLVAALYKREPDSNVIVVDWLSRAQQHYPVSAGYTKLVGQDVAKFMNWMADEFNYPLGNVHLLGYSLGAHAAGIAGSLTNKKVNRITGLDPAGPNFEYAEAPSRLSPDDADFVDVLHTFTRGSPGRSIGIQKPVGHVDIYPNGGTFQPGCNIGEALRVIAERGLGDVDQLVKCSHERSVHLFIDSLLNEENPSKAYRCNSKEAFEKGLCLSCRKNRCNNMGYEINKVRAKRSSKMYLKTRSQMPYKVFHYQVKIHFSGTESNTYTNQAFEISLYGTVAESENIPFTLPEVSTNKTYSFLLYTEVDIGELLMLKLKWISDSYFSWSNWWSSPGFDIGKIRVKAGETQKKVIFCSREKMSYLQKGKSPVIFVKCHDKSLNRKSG
Excerpt: (§1) Lipoprotein Lipase (LPL) [Classified as EC 3.1.1.34 in accordance with the Recommendations of the Nomenclature Committee of the International Union of Biochemistry and Molecular Biology (available on the World Wide Web at the following address: http://www.chem.qmw.ac.uk/iubmb/enzyme/)]
Materials. The lipoprotein lipase employed was obtained from Dr. Gunilla Olivecrona of Umea University, Sweden. ^3H-triolein (TO) from Amersham, Buckinghamshire, U.K., cat No. TRA191; 5-20 Ci/mmol dissolved in toluene. Intralipid is from Kabi-Fresenius). Apo CII was obtained from PMSF-treated plasma from overnight fasted rats. All other reagents are of commercial grade and obtained from various commercial sources.
Methods. The preparation of the substrate is as follows:
25 μl of ^3H-Triolein evaporated under a gentle stream of N2 in a 27° C. room in 4 ml chromacol glass followed by the addition of 1 ml 10% intralipid. This is mixed and sonicated on ice for 5 minutes (50% pulse mode). This can be kept for 1 week at 4° C.
100 μl assay medium (0.3M Tris-Cl, 0.2M NaCl, 0.2 mg heparin/ml and 120 mg BSA/ml (fraction V, Sigma no. 3401, pH 8.5))
All mixed in a 13×100 mm glass tube and incubated for at least 5 minutes.
2. Add 5 μl LPL (of a solution containing 500 mU/mg)
Mix and incubate for 30 minutes at 25° C.
3. The reaction is stopped with 3.25 ml of a solution containing Methanol:chloroform:heptan 10:9:7. Add 1.05 ml buffer (100 mM Boric acid, 100 mM potassium carbonate pH 10.5) and mix 10 seconds per vial.
5. Take 1 ml of the upper phase+10 ml scintillation fluid and mix
6. Scintillation count for 5 minutes per vial.

[2] = biological target: T2, Hormone-sensitive lipase (HSL) (Homo sapiens, UniProt Q05469); assay: Hormone-sensitive lipase (HSL) inhibition assay, 3H-labeled triolein or MOME substrate; format: biochemical
T2 sequence (Q05469 1-1076): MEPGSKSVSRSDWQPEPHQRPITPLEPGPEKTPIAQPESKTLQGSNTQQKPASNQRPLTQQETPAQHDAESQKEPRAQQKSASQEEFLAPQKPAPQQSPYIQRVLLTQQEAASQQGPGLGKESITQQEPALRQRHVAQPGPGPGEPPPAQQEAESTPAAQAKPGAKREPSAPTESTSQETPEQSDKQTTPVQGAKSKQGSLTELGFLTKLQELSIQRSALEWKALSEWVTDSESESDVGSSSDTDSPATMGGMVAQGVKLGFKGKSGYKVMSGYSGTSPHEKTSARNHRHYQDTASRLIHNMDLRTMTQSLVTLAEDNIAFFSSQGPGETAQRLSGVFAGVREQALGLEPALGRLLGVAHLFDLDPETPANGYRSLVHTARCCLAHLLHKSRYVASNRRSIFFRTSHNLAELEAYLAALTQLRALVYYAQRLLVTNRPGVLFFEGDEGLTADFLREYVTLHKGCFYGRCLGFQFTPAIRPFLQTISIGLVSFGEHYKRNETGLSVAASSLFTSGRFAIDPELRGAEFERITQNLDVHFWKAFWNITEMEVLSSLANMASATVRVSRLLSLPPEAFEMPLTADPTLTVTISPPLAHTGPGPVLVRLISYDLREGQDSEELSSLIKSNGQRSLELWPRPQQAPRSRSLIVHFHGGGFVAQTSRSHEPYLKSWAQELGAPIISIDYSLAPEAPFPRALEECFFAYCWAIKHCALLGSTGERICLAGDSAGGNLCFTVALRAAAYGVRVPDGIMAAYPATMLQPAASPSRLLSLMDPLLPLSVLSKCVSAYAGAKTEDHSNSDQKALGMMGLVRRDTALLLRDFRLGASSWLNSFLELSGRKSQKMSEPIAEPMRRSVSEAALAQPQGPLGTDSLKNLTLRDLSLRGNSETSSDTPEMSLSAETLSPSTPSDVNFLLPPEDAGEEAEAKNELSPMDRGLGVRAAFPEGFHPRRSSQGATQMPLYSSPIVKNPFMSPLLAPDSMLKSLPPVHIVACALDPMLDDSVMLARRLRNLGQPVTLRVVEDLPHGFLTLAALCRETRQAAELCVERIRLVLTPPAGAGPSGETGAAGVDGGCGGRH
Excerpt: as §1, with “Hormone-sensitive lipase (HSL) [classified” for “Lipoprotein Lipase (LPL) [Classified”, “as a triacylglycerol lipase,” for “as”, “3.1.1.3,” for “3.1.1.34”
Materials. The Hormone-sensitive lipase employed was provided by Dr. Cecilia Holm of Lund University, Sweden, or produced and purified by Novo Nordisk (NN) using the reagents and protocols employed by Dr. Holm. The substrates used are: ^3H-labeled triolein (TO) from Amersham, Buckinghamshire, U.K. cat No. TRA191; 5-20 Ci/mmol dissolved in toluene, triolein (Sigma, Cat. No. T-1740) and mono-oleoyl-2-O-mono-oleylglycerol (MOME) synthesized at (NN) using the protocols provided by Dr. Cecilia Holm, Lund University, Sweden. Phosphatidyl choline (PC) and phosphatidyl inositol (PI) are from Sigma (St Luis Mo., cat. Nos. P-3556 and P-5954, respectively). All other reagents are of commercial grade and obtained from various commercial sources.
Methods. The preparation of the substrates is as follows:
TO: 30 μl PC:PI (20 mg/ml solution of PC:PI 3:1 prepared in chloroform)+128 μl cold TO+15 μl ^3H-TO
MOME: 30 μl PC:PI+100 μl cold MOME+200 μl ^3H-MOME
They are then evaporated under a gentle stream of N2 followed by 20-30 minutes in a Speedvac™ apparatus to ensure the absence of residual solvent.
The samples are prepared as follows:
Samples/controls: 78 μl PED-BSA+20 μl inhibitor (various concentrations)+2 μl HSL (undiluted 0.12 mg/ml). If no inhibitors are being tested, the reaction contains 98 μl PED-BSA+2 μl HSL.
The samples are put on ice and then sonicated as follows:
With TO as substrate, add 2 ml potassium buffer (0.1M potassium phosphate, pH 7) and then sonicate twice for 1 minute, with a 1-minute interval between cycles. Add an additional 1 ml potassium buffer and sonicate 4 times for 30 seconds, with a 30 second interval in between cycles. To finish, add 1 ml BSA 20%-in potassium buffer, mix by inversion and store on ice until use.
With MOME as substrate: add 2 ml potassium buffer and then sonicate twice for 1 minute, with a 1 minute interval between cycles. Add 1.6 ml potassium buffer and sonicate 4 times for 30 seconds, with a 30-second interval between cycles. To finish, add 0.4 ml BSA 20%-buffer, mix by inversion and store on ice until use.
The enzyme reaction is run at 37° C. The substrate mix is added to the various reactions at 10 second intervals, incubated for 30 minutes in a water bath and then stopped with 3.25 ml of a solution containing CH3OH:CHCl3:heptane (10:9:7). After the addition of 1.05 ml potassium buffer pH10.5, the sample is vortexed thoroughly and centrifuged for 20 min at 2000 r.p.m. One ml of the upper phase is added to 10 ml scintillation fluid, and mixed thoroughly by shaking.
The samples are then counted, 5 min per vial, in a scintillation counter.

[3] = read-out: HSL inhibition (IC50)

| Compound | inhibition at 50 µM [1] [%] | IC50 [2, 3] [nM] | IC50 [2] [nM] |
| --- | --- | --- | --- |
| O=C(NN1CCc2ccccc2C1)Oc1ccc(C2CCCCC2)cc1 [Example 43] | 6 | > 10000 | – |
| CCC(C)(C)c1ccc(OC(=O)NN2CCc3ccccc3C2)cc1 [Example 31] | 1 | > 10000 | – |
| Cc1cccc(OC(=O)NN2CCc3ccccc3C2)c1 [Example 10, (3,4-Dihydro-1H-isoquinolin-2-yl)-carbamic Acid m-tolyl Ester] | 5 | 670 | – |
| Cc1ccc(OC(=O)NN2CCc3ccccc3C2)cc1 [Example 8, (3,4-Dihydro-1H-isoquinolin-2-yl)-carbamic Acid p-tolyl Ester] | 1 | 30 | – |
| O=C(NN1CCc2ccccc2C1)Oc1ccc(F)cc1 [Example 7] | 0 | 460 | – |
| CCc1ccc(OC(=O)NN2CCc3ccccc3C2)cc1 [Example 28] | 3 | 70 | – |
| CC(C)(C)c1ccc(OC(=O)NN2CCc3ccccc3C2)cc1 [Example 32] | 0 | > 10000 | – |
| Nc1ccc(OC(=O)NN2CCc3ccccc3C2)cc1 [Example 18, (3,4-Dihydro-1H-isoquinolin-2-yl)-carbamic Acid 4-amino-phenyl Ester Hydrochloride] | 0 | 7700 | – |
| O=C(NN1CCc2ccccc2C1)Oc1ccc(OCc2ccccc2)cc1 [Example 29] | 0 | 2600 | – |
| Cc1ccccc1OC(=O)NN1CCc2ccccc2C1 [Example 9, (3,4-Dihydro-1H-isoquinolin-2-yl)-carbamic Acid o-tolyl Ester] | 7 | 1600 | – |
| COc1ccccc1OC(=O)NN1CCc2ccccc2C1 [Example 2, (3,4-Dihydro-1H-isoquinolin-2-yl)-carbamic acid 2-methoxy-phenyl Ester] | 2 | 6400 | – |
| O=C(NN1CCc2ccccc2C1)Oc1ccc(Br)cc1 [Example 5, (3,4-Dihydro-1H-isoquinolin-2-yl)-carbamic acid 4-bromo-phenyl Ester] | 7 | 39 | – |
| COc1cc2c(cc1OC)CN(NC(=O)Oc1ccc(Cl)cc1)CC2 [Example 16, (6,7-Dimethoxy-3.4-dihydro-1H-isoquinolin-2-yl)-carbamic Acid 4-chloro-phenyl Ester] | 0 | 1400 | – |
| O=C(NN1CCc2ccccc2C1)Oc1c(Cl)cccc1Cl [Example 11, (3,4-Dihydro-1H-isoquinolin-2-yl)-carbamic Acid 2.6-dichloro-phenyl Ester] | 7 | > 10000 | – |
| O=C(NN1CCc2ccccc2C1)Oc1ccc(Cc2ccccc2)cc1 [Example 27] | 5 | – | 90 |
